Assay results from US10800812B2, “Compstatin analogs with increased solubility and improved pharmacokinetic properties” (The Trustees of the University of Pennsylvania, priority 2018, dated 2020).
Values joined by “and” are separate entries in the source; they are usually repeats but may differ in a detail not shown here. Equal entries are not always repeated. Where two headings read alike, the source gives them in different places. Marks after values point to notes of the source that are not given here.

Tests used:
[1] = Plasma concentration after multiple injections in NHP; assay type: in vivo, cynomolgus monkeys; details: cynomolgus monkey, sc
[2] = Residence time in the vitreous after intravitreal injection (WES / SPR competition assay); assay type: in vivo, cynomolgus monkeys; design: detection in the vitreous: dose or concentration left out as unconfirmed; details: for detection in the vitreous at time points post-injection: days 14-90
Protocol: To determine the residence time of mPEG(3k)-Cp40, mPEG(1k)-Cp40, Cp40-KK, and Cp40-KKK in the vitreous of cynomolgus macaques, these Cp40-based analogs were administered intravitreally (i.v.t.) to the animals after induction of light ketamine anesthesia (10-15 mg/kg, by intramuscular injection (i.m.)) and dilation of the pupils with tropicamide/phenylephrine ophthalmic solution (see Table 6 for study design).
For i.v.t. injection, the cynomolgus monkeys were anesthetized with a combination of ketamine (15-25 mg/kg, i.m.) and xylazine (2 mg/kg, i.m.) and the eye was cleaned with povidone-iodine solution. After application of oxybuprocaine hydrochloride solution (Benoxil® ophthalmic solution 0.4%) to the cornea as a local anesthetic, the Cp40-based analogs were administered to the animals by i.v.t. injection into either the right (G1, G3) or left (G2, G4) eye of each animal. Immediately following each injection, a single topical dose of 0.5% levofloxacin was administered. After i.v.t. injection of mPEG(3k)-Cp40, mPEG(1k)-Cp40, Cp40-KK, and Cp40-KKK, vitreous fluid samples (about 50 μL each) were withdrawn from Cp40-based analog-treated eyes on days 14, 28, 42, (G1, G2, G3, G4), 56, 73, 90 (G1, G2) (this was done either three times or six times). Samples were collected on ice and stored in a deep freezer (−79.3 to −68.5° C.) until further analysis. On day 73 and 90, about 100 μL of vitreous fluid from G1 and G2 were withdrawn. Presence and concentration of the Cp40-based analogs was determined using either the simple western technology (WES, ProteinSimple, San Jose, Calif.), or surface plasmon resonance (SPR)-based real-time measurement of binding kinetics on a Cp40-KKK immobilized chip (see detailed methods below). Similar results with regard to the intravitreal residence time and concentration levels of the test compounds were obtained regardless of the quantification method selected.
To quantify the levels of all test compounds in vitreous samples collected at different time points following i.v.t. injection (see FIG. 15), WES analysis was performed on a WES instrument (ProteinSimple, San Jose, Calif.) using a 2 to 40 kDa Separation Module and Anti-Rabbit Detection Module according to the manufacturers' instructions. In brief, undiluted eye vitreous samples were mixed with a Fluorescent Master Mix and heated at 95° C. for 5 min. The samples, blocking reagent, primary antibodies (in house developed anti-Cp40; 1:1000 in blocking reagent), HRP-conjugated secondary antibody (anti-rabbit IgG) and chemiluminescent substrate were pipetted into the plate (part of Separation Module). The used instrument settings were: stacking and separation at 375 V for 27 min; blocking reagent for 30 min, primary and secondary antibody both for 30 min; Luminol/peroxide chemiluminescence detection for ˜15 min (exposures of 5, 15, 30, 60, 120, 240, and 480 s). The resulting electropherograms were evaluated using the Compass software (ProteinSimple, San Jose, Calif.). The following criteria were used to discriminate low peptide signals from background: The peak signal-to-noise (S/N) ratio given by the software must be ≥10, and the peak height/baseline ratio (calculated manually from the peak height and baseline values given by the software) must be equal to or greater than 3. A five-point standard curve of known concentrations (100-2,000 nM) of peptide spiked in rabbit vitreous was used to calculate peptide concentration in the vitreous samples using the Compass software (Compass Software Inc., Atlanta, Ga.). […] Shown in FIG. 15 is a representative standard curve generated using the WES system and bands obtained upon running pre-determined amounts of purified peptide spiked into rabbit vitreous samples.
To corroborate the WES-based measurements for all test compounds, an SPR-based competition assay was developed for detecting Cp40 and Cp40 analogs in biological samples. […] The samples were heated at 95° C. for 5 min. […]

[3] = system: classical pathway activation (C3b deposition); assay: Classical pathway activation ELISA (C3b deposition) with or without rabbit vitreous; assay type: biochemical, human; details: in the absence of vitreous
Protocol: An alternative explanation to the one presented above is that the vitreous contains additional unidentified factors that associate with the Cp40-KKK analog. To investigate whether an unidentified vitreous factor impacts the complement inhibitory activity of lysine containing compounds, complement activation assays were performed using vitreous samples. Briefly, human plasma was incubated with OVA-anti-OVA immune-complexes in the presence of serial dilutions of the Cp40-based analogs mixed with rabbit vitreous. Levels of classical pathway activation (C3b deposition) were determined by ELISA using a polyclonal anti-human C3 antibody conjugated with HRP (MP Biomedicals, Solon, Ohio) (FIG. 20).

C3 [4] = biological target: C3 (Homo sapiens, UniProt P01024); details: Qu et al. 2013; cited from earlier work
in vivo [5] = details: male, cynomolgus monkey, sc, 2 mg/kg, t1/2
in vivo [6] = details: cynomolgus monkey, im, 25 mg/kg
physchem = details: pH 7.4, Conc. (solubility in PBS)
[7] = Solubility of Cp40-based analogs in PBS
[8] = Pharmacokinetics in NHP plasma after single s.c. injection; details: for AUC(0-t): AUC0-t (0-120 h); for AUC(0-inf): AUCinf
human C3b = biological target: T1, human C3b (Homo sapiens, UniProt P01024); assay: SPR binding affinity and kinetics with C3b; details: 25° C., 1:1 Langmuir model; read-out: ka, association constant
T1 construct: purchased Complement Technology, Inc., Tyler, Tex

[9] = Lys cleavage fragments in NHP plasma after s.c. injection (UPLC-ESI-MS); assay type: in vivo, cynomolgus monkeys; details: after s.c. 2 mg/kg Cp40-KKK, both animals
[10] = Pharmacokinetics after single i.v. injection; design: species or system cynomolgus monkeys; details: cynomolgus monkey, in vivo, iv
Protocol: In vivo pharmacokinetic studies were conducted, in which cynomolgus monkeys were administered single i.v. injections of mPEG(1k)-Cp40, mPEG(3k)-Cp40, Cp40-KK, or Cp40-KKK.

purified human C3b = biological target: T2, purified human C3b (Homo sapiens, UniProt P01024); assay: SPR C3b binding of Cp40-KKK in vitreous samples; details: for C3b-binding signal: day 14
T2 construct: purchased Complement Technology, Inc., Tyler, Tex
Protocol: To confirm that the compound present in the NHP vitreous maintains C3b-binding activity, which is a prerequisite for eliciting its inhibitory action across all complement pathways, surface plasmon resonance (SPR) binding experiments were conducted. Briefly, for a positive binding control, serial dilutions of Cp40-KKK (16, 8, 4, and 2 nM) were added to rabbit vitreous samples and flowed onto a Biacore CM5 chip immobilized with purified human C3b (Complement Technology Inc, Tyler, Tex.) (see FIG. 19A). Next, vitreous samples were collected from a Cp40-KKK injected eye at day 14 post-injection and subjected to heat-inactivation at 95° C. for 5 min. Both heat-inactivated and non-heat-inactivated samples were flowed onto a CM5 chip immobilized with purified human C3b as indicated above (FIG. 19B).

[11] = Pharmacokinetics after single i.m. injection; details: cynomolgus monkey, in vivo, im, 25 mg/kg
C3 [12] = assay: C3 saturation in NHP plasma after single s.c. injection; assay type: in vivo, cynomolgus monkeys (Macaca fascicularis); details: single s.c. 2 mg/kg
[13] = cynomolgus monkey, in vivo, sc, 2 mg/kg
[14] = at the solubility concentration
[15] = male, cynomolgus monkey, plasma, sc, 2 mg/kg, single s.c. 2 mg/kg, NHP plasma, two animals
[16] = male, cynomolgus monkey, plasma, sc, 2 mg/kg, Cmax, single s.c. 2 mg/kg, NHP plasma, two animals
[17] = single s.c. 2 mg/kg, NHP plasma, two animals, 2 mg/kg
[18] = single s.c. 2 mg/kg, NHP plasma, two animals, listed as Cp40-KKK (SUM), 2 mg/kg

T2 sequence (P01024 23-667 limits assumed): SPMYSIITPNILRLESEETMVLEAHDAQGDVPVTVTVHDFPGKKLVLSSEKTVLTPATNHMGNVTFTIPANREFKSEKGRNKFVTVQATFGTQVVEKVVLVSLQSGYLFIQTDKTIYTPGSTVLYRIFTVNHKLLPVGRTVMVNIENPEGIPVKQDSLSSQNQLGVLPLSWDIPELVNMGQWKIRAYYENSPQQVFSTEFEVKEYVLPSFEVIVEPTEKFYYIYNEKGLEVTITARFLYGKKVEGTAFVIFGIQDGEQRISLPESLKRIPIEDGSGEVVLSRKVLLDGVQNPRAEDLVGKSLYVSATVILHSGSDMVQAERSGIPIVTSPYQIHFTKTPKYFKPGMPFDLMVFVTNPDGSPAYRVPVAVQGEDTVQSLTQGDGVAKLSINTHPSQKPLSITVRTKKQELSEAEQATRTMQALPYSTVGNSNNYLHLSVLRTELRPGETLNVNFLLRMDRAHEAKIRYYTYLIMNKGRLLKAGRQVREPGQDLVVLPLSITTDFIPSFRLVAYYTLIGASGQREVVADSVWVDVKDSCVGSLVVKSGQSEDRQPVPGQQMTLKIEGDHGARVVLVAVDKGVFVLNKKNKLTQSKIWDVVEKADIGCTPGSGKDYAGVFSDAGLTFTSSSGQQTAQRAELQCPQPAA
T2 sequence (P01024 749-1663 partner limits assumed): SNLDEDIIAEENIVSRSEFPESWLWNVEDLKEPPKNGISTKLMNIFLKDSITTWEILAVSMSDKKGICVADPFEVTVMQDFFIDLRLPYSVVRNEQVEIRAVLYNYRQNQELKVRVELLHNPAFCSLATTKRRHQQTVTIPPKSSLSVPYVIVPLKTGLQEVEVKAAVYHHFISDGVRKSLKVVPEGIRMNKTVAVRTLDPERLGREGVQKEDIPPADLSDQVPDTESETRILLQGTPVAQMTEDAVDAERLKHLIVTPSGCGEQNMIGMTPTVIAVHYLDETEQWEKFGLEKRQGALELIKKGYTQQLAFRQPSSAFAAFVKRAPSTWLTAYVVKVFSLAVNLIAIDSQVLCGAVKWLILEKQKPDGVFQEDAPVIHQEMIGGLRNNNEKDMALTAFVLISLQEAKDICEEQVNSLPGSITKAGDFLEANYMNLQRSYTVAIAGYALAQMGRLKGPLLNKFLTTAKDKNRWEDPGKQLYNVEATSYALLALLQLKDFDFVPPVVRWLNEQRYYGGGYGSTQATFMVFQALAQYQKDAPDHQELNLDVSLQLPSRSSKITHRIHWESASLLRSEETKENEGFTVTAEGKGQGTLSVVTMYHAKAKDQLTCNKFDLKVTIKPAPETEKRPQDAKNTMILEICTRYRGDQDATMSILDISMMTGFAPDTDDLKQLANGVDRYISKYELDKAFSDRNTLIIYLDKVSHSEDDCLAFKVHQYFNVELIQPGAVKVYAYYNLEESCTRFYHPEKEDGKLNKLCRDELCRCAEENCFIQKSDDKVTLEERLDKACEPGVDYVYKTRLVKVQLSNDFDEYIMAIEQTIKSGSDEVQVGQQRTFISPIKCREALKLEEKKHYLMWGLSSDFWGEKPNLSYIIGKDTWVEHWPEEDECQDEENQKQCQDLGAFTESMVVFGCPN
C3 (Homo sapiens, UniProt P01024), sequence (P01024 23-1663): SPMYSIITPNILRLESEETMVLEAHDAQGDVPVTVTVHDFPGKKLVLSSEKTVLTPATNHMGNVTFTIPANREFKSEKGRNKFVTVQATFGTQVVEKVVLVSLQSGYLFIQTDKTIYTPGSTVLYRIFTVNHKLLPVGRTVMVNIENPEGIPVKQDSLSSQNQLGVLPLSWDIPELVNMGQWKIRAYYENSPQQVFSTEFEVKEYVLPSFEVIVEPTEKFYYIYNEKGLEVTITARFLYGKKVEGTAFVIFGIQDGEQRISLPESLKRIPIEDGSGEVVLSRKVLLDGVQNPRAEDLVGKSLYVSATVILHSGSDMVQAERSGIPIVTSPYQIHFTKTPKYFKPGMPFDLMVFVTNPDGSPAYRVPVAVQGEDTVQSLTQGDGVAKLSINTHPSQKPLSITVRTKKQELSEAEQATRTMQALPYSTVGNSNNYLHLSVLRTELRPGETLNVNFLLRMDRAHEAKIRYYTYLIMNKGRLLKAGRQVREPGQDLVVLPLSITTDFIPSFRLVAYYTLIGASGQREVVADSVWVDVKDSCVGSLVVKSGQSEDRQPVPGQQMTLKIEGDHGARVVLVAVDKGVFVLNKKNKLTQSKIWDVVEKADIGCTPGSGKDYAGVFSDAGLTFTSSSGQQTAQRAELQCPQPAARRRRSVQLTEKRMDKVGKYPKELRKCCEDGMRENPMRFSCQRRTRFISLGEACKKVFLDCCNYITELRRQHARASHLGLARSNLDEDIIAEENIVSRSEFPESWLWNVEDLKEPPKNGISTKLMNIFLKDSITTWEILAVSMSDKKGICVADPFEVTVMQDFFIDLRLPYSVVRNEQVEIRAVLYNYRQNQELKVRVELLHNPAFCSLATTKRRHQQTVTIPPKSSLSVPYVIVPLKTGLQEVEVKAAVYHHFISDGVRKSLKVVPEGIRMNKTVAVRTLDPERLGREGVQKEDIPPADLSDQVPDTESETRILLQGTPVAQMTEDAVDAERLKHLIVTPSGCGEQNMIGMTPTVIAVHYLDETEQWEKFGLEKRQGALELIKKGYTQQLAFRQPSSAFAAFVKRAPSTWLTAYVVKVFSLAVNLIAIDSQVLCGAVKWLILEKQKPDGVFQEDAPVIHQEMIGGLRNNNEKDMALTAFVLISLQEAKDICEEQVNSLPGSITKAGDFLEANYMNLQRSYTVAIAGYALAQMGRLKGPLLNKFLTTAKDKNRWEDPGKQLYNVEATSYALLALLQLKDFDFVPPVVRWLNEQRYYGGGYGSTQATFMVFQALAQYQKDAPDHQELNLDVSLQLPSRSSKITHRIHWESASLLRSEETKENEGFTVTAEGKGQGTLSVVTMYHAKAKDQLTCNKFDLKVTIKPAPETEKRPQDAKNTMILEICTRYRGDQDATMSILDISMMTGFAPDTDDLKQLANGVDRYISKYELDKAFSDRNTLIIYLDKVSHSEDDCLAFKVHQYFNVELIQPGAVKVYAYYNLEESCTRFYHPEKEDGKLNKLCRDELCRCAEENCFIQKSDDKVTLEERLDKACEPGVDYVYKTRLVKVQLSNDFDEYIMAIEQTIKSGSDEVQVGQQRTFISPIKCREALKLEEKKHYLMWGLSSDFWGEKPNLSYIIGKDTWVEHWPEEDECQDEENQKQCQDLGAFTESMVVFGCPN
T1 sequence (P01024 23-667 limits assumed): as the sequence (P01024 23-667 limits assumed) above
T1 sequence (P01024 749-1663 partner limits assumed): as the sequence (P01024 749-1663 partner limits assumed) above

For `CC[C@H](C)[C@H](NC(=O)[C@H](N)Cc1ccc(O)cc1)C(=O)N[C@H]1CSSC[C@@H](C(=O)N(C)[C@H](C(N)=O)[C@@H](C)CC)NC(=O)[C@H](CCCNC(=N)N)NC(=O)[C@H](Cc2c[nH]cn2)NC(=O)[C@H](C)NC(=O)CN(C)C(=O)[C@H](Cc2c[nH]c3ccccc23)NC(=O)[C@H](CC(=O)O)NC(=O)[C@H](CCC(N)=O)NC(=O)[C@H](Cc2cn(C)c3ccccc23)NC(=O)[C@H](C(C)C)NC1=O` [Cp40, DTyr-Ile-[Cys-Val-Trp(Me)-Gln-Asn-Trp-Sar-Ala-His-Arg-Cys]-mIle-NH2, reference compound], the Cmax ([1]; in vivo, 4 mg/kg) was 8 to 10 µM, the “detection in the vitreous” value ([2]; Cp40 i.v.t administered) was “no detection of any compound was observed after one month” and the “complement classical pathway inhibitory activity” value [3] was “inhibitory activity in a dose-dependent manner”. The “binding affinity for C3” value (C3 [4]) was “subnanomolar”, the “binding affinity for C3 higher than that of the parent peptide” value (C3 [4]) was ~6,000 fold and the half-life (in vivo [5]) was 41 h. The half-life (in vivo [6]) was about 192 h, the solubility (physchem) was at least 1.08 mg/mL and the “pH of the peptide solution in PBS” value [7, 14] was 7.5. It also gave an AUC(0-t) [8, 15] of 233 µM·h, an AUC(0-inf) [8, 15] of 263 µM·h and a Cmax [8, 16] of 6.2 µM. For the same compound, the Tmax ([8]; male, cynomolgus monkey, plasma, sc, 2 mg/kg, tmax, single s.c. 2 mg/kg, NHP plasma, two animals) was 2 h, the “AUC0-t (0-120 h)” value [8, 17] was 218 µM·h and the AUCinf [8, 17] was 255 µM·h. It also gave a Cmax [8, 17] of 5.53 µM.

For `CC[C@H](C)[C@H](NC(=O)[C@H](N)Cc1ccc(O)cc1)C(=O)N[C@H]1CSSC[C@@H](C(=O)N(C)[C@H](C(=O)N[C@@H](CCCCN)C(=O)N[C@@H](CCCCN)C(=O)N[C@@H](CCCCN)C(N)=O)[C@@H](C)CC)NC(=O)[C@H](CCCNC(=N)N)NC(=O)[C@H](Cc2c[nH]cn2)NC(=O)[C@H](C)NC(=O)CN(C)C(=O)[C@H](Cc2c[nH]c3ccccc23)NC(=O)[C@H](CC(=O)O)NC(=O)[C@H](CCC(N)=O)NC(=O)[C@H](Cc2cn(C)c3ccccc23)NC(=O)[C@H](C(C)C)NC1=O` [Cp40-KKK, DTyr-Ile-[Cys-Val-Trp(Me)-Gln-Asn-Trp-Sar-Ala-His-Arg-Cys]-mIle-Lys-Lys-Lys-NH2], the kon (human C3b) was 3.83e+06 M⁻¹ s⁻¹, the “concentration of intact Cp40-KKK in plasma at any time point” value [9] was at most 2 µM and the Cmax ([1]; plasma, 2 mg/kg every 48 hrs, read-out: observed Cmax after multiple s.c. dosing) was at least 20 µM. For the same compound, the “Lys cleavage in plasma upon i.v. injection” value [10] was “metabolized into Cp40-KK and small amounts of Cp40-K”, the half-life ([10]; single i.v. injection 2 mg/kg) was 35.3 h and the AUC(0-t) ([10]; single i.v. injection 2 mg/kg, read-out: AUC 0-120) was 312 µM·h. The intravitreal residence time ([2]; after i.v.t.) was at least 3 months, the “vitreous residence time at C3 saturating levels” value ([2]; single i.v.t. injection 0.5 mg) was at least 90 days and the “detection in the vitreous at time points post-injection” value ([2]; single i.v.t. injection 0.5 mg) was “detected even at day 90 post-treatment”. For the same compound, the C3b-binding signal (purified human C3b; heat-inactivated vitreous sample) was 10 relative units, the C3b-binding signal (purified human C3b; non-heat inactivated vitreous sample) was 2 relative units and the “binding to C3b” value (purified human C3b; spiked into rabbit vitreous, 2-16 nM) was “binds to C3b in a dose-dependent manner”. For the same compound, the “C3b-binding activity of compound present in NHP vitreous” value (purified human C3b; vitreous from injected eye, day 14 post-injection) was “maintains its C3b-binding activity”, the “complement classical pathway inhibitory activity” value [3] was “inhibitory activity in a dose-dependent manner” and the “pH of the peptide solution in PBS” value ([7]; after additional lyophilization from H2O) was 9.5. For the same compound, the “pH of the peptide solution in PBS” value [7, 14] was 8.5, the “pH of the peptide solution in PBS” value ([7]; pH adjusted upon addition of PBS) was 7.5* and the half-life [11] was about 192 h. It also gave a CL/F ([8]; male, cynomolgus monkey, plasma, sc, 2 mg/kg) of about 45 mL/min/kg, an AUC(0-t) [8, 15] of about 616 µM·h and an AUC(0-inf) [8, 15] of 805 µM·h. For the same compound, the Cmax [8, 16] was about 13.5 µM, the half-life ([8]; male, cynomolgus monkey, plasma, sc, 2 mg/kg, t1/2, single s.c. 2 mg/kg, NHP plasma, two animals) was about 44.3 h and the “AUC0-t increased vs Cp40” value ([8]; s.c. 2 mg/kg) was about 2.6 fold. For the same compound, the “CL/F decreased vs Cp40” value ([8]; s.c. 2 mg/kg) was about 3 fold, the “cmax higher than Cp40” value ([8]; s.c. 2 mg/kg) was about 2 fold and the t1/2 [8, 17] was 42 h and 47 h. The “AUC0-t (0-120 h)” value [8, 18] was 658 µM·h and 573 µM·h, the AUCinf [8, 18] was 685 µM·h and the Cmax [8, 18] was 11.9 µM and 15.1 µM. For the same compound, the t1/2 [8, 18] was 46.7 h and 41.8 h.

For “mPEG(3k)-Cp40: N-terminus of Cp40 coupled to polydisperse PEG chain of 3 kDa via amide coupling”, the “C3 saturation time (peptide above plasma level of C3)” value (C3 [12]) was about 34 h, the “detection in the vitreous at time points post-injection” value ([2]; single i.v.t. injection 0.5 mg) was “detected at day 14 post injection but not in later time points” and the CL/F [13] was about 43.5 mL/min/kg. The “Conc. (solubility in PBS)” value ([7]; PBS (pH 7.4)) was 270 mg/mL and the “pH of the peptide solution in PBS” value [7, 14] was 7.
